{"source": "patent US8163793B2", "about": "“Proline derivatives” (Hoffman-La Roche Inc., priority 2009, dated 2012)", "key": {"Cat L": {"target": "Cat L (UniProt P07711)", "experiment": "Cathepsin enzyme inhibition assay (fluorogenic peptide substrate Z-Val-Val-Arg-AMC), Cathepsin L", "type": "biochemical, human and mouse", "conditions": "enzyme 1 nM, substrate 20 μM, pH 6.5; read-out: CatL IC50", "summary_of_the_method": "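Fluorogenic cleavage of Z-Val-Val-Arg-AMC (20 μM) by 1 nM Cat L was monitored at ex 360/em 465 nm for 20 min, the linear phase. The buffer was 100 mM potassium phosphate pH 6.5 with 5 mM EDTA and DTT. IC50 values were derived by standard methods, in μM.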"}, "Cathepsin S": {"target": "Cathepsin S (UniProt P25774)", "experiment": "Cathepsin enzyme inhibition assay (fluorogenic peptide substrate Z-Val-Val-Arg-AMC), Cathepsin S", "type": "biochemical, human and mouse", "conditions": "enzyme 1 nM, substrate 20 μM, pH 6.5; read-out: CatS IC50", "summary_of_the_method": "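Compounds were combined with 1 nM human or mouse enzyme, and substrate then started the reaction. The buffer was potassium phosphate (100 mM, pH 6.5) containing EDTA-Na 5 mM, Triton X-100 0.001% and […] 5 mM.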"}}, "data": [{"smiles": "Cc1cc(N2C[C@H](S(=O)(=O)c3ccc(N4CCN(C)CC4)cc3Cl)C[C@H]2C(=O)NC2(C#N)CC2)n(C2CCC2)n1", "note": "[Example 401, (2S,4R)-4-[2-Chloro-4-(4-methyl-piperazin-1-yl)-benzenesulfonyl]-1-(2-cyclobutyl-5-methyl-2H-pyrazol-3-yl)-pyrrolidine-2-carboxylic acid (1-cyano-cyclopropyl)-amide]", "values": [{"measurement": "IC50", "setting": "Cat L", "value": 1080, "unit": "nM"}, {"measurement": "IC50", "setting": "Cathepsin S", "value": 0.46, "unit": "nM"}]}, {"smiles": "CS(=O)(=O)c1cccc(N2C[C@H](S(=O)(=O)c3ccccc3C(F)(F)F)C[C@H]2C(=O)NC2(C#N)CC2)c1", "note": "[Example 402, (2S,4R)-1-(3-Methanesulfonyl-phenyl)-4-(2-trifluoromethyl-benzenesulfonyl)-pyrrolidine-2-carboxylic acid (1-cyano-cyclopropyl)-amide]", "values": [{"measurement": "IC50", "setting": "Cat L", "value": "≥ 25000", "unit": "nM"}, {"measurement": "IC50", "setting": "Cathepsin S", "value": 1.4, "unit": "nM"}]}, {"smiles": "N#CC1(NC(=O)[C@@H]2C[C@@H](S(=O)(=O)c3ccccc3C(F)(F)F)CN2c2nc(Cl)ns2)CC1", "note": "[Example 405, (2S,4R)-1-(3-Chloro-[1,2,4]thiadiazol-5-yl)-4-(2-trifluoromethyl-benzenesulfonyl)-pyrrolidine-2-carboxylic acid (1-cyano-cyclopropyl)-amide]", "values": [{"measurement": "IC50", "setting": "Cat L", "value": "≥ 25000", "unit": "nM"}, {"measurement": "IC50", "setting": "Cathepsin S", "value": 0.935, "unit": "nM"}]}, {"smiles": "Cc1cc(N2C[C@H](S(=O)(=O)c3ccccc3C(F)(F)F)C[C@H]2C(=O)NC2(C#N)CC2)n(C2CCN(C(=O)OCc3ccccc3)CC2)n1", "note": "[Example 406, 4-{5-[(2S,4R)-2-(1-Cyano-cyclopropylcarbamoyl)-4-(2-trifluoromethyl-benzenesulfonyl)-pyrrolidin-1-yl]-3-methyl-pyrazol-1-yl}-piperidine-1-carboxylic acid Benzyl Ester]", "values": [{"measurement": "IC50", "setting": "Cat L", "value": "≥ 25000", "unit": "nM"}, {"measurement": "IC50", "setting": "Cathepsin S", "value": 4, "unit": "nM"}]}, {"smiles": "Cc1cc(N2C[C@H](S(=O)(=O)c3ccccc3C(F)(F)F)C[C@H]2C(=O)NC2(C#N)CC2)n(C2CCNCC2)n1", "note": "[Example 407, (2S,4R)-1-(5-Methyl-2-piperidin-4-yl-2H-pyrazol-3-yl)-4-(2-trifluoromethyl-benzenesulfonyl)-pyrrolidine-2-carboxylic acid (1-cyano-cyclopropyl)-amide]", "values": [{"measurement": "IC50", "setting": "Cat L", "value": "≥ 25000", "unit": "nM"}, {"measurement": "IC50", "setting": "Cathepsin S", "value": 38.5, "unit": "nM"}]}, {"smiles": "CS(=O)(=O)[C@@H]1C[C@@H](C(=O)NC2(C#N)CC2)N(C(=O)C2(c3ccc(Cl)cc3)CC2)C1", "note": "[Example 409, (2S,4R)-1-[1-(4-Chloro-phenyl)-cyclopropanecarbonyl]-4-methanesulfonyl-pyrrolidine-2-carboxylic acid (1-cyano-cyclopropyl)-amide]", "values": [{"measurement": "IC50", "setting": "Cat L", "value": "≥ 25000", "unit": "nM"}, {"measurement": "IC50", "setting": "Cathepsin S", "value": 2530, "unit": "nM"}]}, {"smiles": "N#CC1(NC(=O)[C@@H]2C[C@@H](S(=O)(=O)c3ccccc3Cl)CN2C(=O)c2n[nH]c3cc(Cl)ccc23)CC1", "note": "[Example 410, (2S,4R)-4-(2-Chloro-benzenesulfonyl)-1-(6-chloro-1H-indazole-3-carbonyl)-pyrrolidine-2-carboxylic acid (1-cyano-cyclopropyl)-amide]", "values": [{"measurement": "IC50", "setting": "Cat L", "value": 29700, "unit": "nM"}, {"measurement": "IC50", "setting": "Cathepsin S", "value": 4.8, "unit": "nM"}]}, {"smiles": "N#CC1(NC(=O)[C@@H]2C[C@@H](S(=O)(=O)c3ccccc3Cl)CN2C(=O)[C@H](O)c2ccc(Cl)cc2)CC1", "note": "[Example 411, (2S,4R)-4-(2-Chloro-benzenesulfonyl)-1-[(R)-2-(4-chloro-phenyl)-2-hydroxy-acetyl]-pyrrolidine-2-carboxylic acid (1-cyano-cyclopropyl)-amide]", "values": [{"measurement": "IC50", "setting": "Cat L", "value": 550, "unit": "nM"}, {"measurement": "IC50", "setting": "Cathepsin S", "value": 0.525, "unit": "nM"}]}, {"smiles": "CC(C)(C)OC(=O)N[C@@H](C(=O)N1C[C@H](S(=O)(=O)c2ccccc2Cl)C[C@H]1C(=O)NC1(C#N)CC1)c1ccc(Cl)cc1", "note": "[Example 412, [(R)-2-[(2S,4R)-4-(2-Chloro-benzenesulfonyl)-2-(1-cyano-cyclopropylcarbamoyl)-pyrrolidin-1-yl]-1-(4-chloro-phenyl)-2-oxo-ethyl]-carbamic Acid Tert-butyl ester]", "values": [{"measurement": "IC50", "setting": "Cat L", "value": 785, "unit": "nM"}, {"measurement": "IC50", "setting": "Cathepsin S", "value": 2.75, "unit": "nM"}]}, {"smiles": "Cc1csc(C2(C(=O)N3C[C@H](S(=O)(=O)c4ccccc4Cl)C[C@H]3C(=O)NC3(C#N)CC3)CC2)n1", "note": "[Example 413, (2S,4R)-4-(2-Chloro-benzenesulfonyl)-1-[1-(4-methyl-thiazol-2-yl)-cyclopropanecarbonyl]-pyrrolidine-2-carboxylic acid (1-cyano-cyclopropyl)-amide]", "values": [{"measurement": "IC50", "setting": "Cat L", "value": 1100, "unit": "nM"}, {"measurement": "IC50", "setting": "Cathepsin S", "value": 0.31, "unit": "nM"}]}, {"smiles": "N#CC1(NC(=O)[C@@H]2C[C@@H](S(=O)(=O)c3ccccc3Cl)CN2C(=O)Cc2ncc(Cl)cn2)CC1", "note": "[Example 414, (2S,4R)-4-(2-Chloro-benzenesulfonyl)-1-[2-(5-chloro-pyrimidin-2-yl)-acetyl]-pyrrolidine-2-carboxylic acid (1-cyano-cyclopropyl)-amide]", "values": [{"measurement": "IC50", "setting": "Cat L", "value": 5450, "unit": "nM"}, {"measurement": "IC50", "setting": "Cathepsin S", "value": 0.295, "unit": "nM"}]}, {"smiles": "Cc1cc(N2C[C@H](S(=O)(=O)c3ccc(N4CC(F)(F)C4)cc3C(F)(F)F)C[C@H]2C(=O)NC2(C#N)CC2)n(C2CCC2)n1", "note": "[Example 415, (2S,4R)-1-(2-Cyclobutyl-5-methyl-2H-pyrazol-3-yl)-4-[4-(3,3-difluoro-azetidin-1-yl)-2-trifluoromethyl-benzenesulfonyl]-pyrrolidine-2-carboxylic acid (1-cyano-cyclopropyl)-amide]", "values": [{"measurement": "IC50", "setting": "Cat L", "value": 11700, "unit": "nM"}, {"measurement": "IC50", "setting": "Cathepsin S", "value": 0.215, "unit": "nM"}]}, {"smiles": "Cc1cc(N2C[C@H](S(=O)(=O)c3ccc(-n4cccn4)cc3C(F)(F)F)C[C@H]2C(=O)NC2(C#N)CC2)n(C2CCC2)n1", "note": "[Example 416, (2S,4R)-1-(2-Cyclobutyl-5-methyl-2H-pyrazol-3-yl)-4-(4-pyrazol-1-yl-2-trifluoromethyl-benzenesulfonyl)-pyrrolidine-2-carboxylic acid (1-cyano-cyclopropyl)-amide]", "values": [{"measurement": "IC50", "setting": "Cat L", "value": 21400, "unit": "nM"}, {"measurement": "IC50", "setting": "Cathepsin S", "value": 0.338, "unit": "nM"}]}, {"smiles": "N#CC1(NC(=O)[C@@H]2C[C@@H](S(=O)(=O)c3ccccc3Cl)CN2C(=O)[C@H](N)c2ccc(Cl)cc2)CC1", "note": "[Example 417, (2S,4R)-1-[(R)-2-Amino-2-(4-chloro-phenyl)-acetyl]-4-(2-chloro-benzenesulfonyl)-pyrrolidine-2-carboxylic acid (1-cyano-cyclopropyl)-amide]", "values": [{"measurement": "IC50", "setting": "Cat L", "value": 55.5, "unit": "nM"}, {"measurement": "IC50", "setting": "Cathepsin S", "value": 2.45, "unit": "nM"}]}, {"smiles": "Cc1cc(N2C[C@H](S(=O)(=O)c3ccccc3Cl)C[C@H]2C(=O)NC2(C#N)CC2)n(Cc2ccc(Cl)cc2)n1", "note": "[Example 418, (2S,4R)-4-(2-Chloro-benzenesulfonyl)-1-[2-(4-chloro-benzyl)-5-methyl-2H-pyrazol-3-yl]-pyrrolidine-2-carboxylic acid (1-cyano-cyclopropyl)-amide]", "values": [{"measurement": "IC50", "setting": "Cat L", "value": 1620, "unit": "nM"}, {"measurement": "IC50", "setting": "Cathepsin S", "value": 4, "unit": "nM"}]}, {"smiles": "Cc1cc(N2C[C@H](S(=O)(=O)c3ccc(-c4ccncn4)cc3C(F)(F)F)C[C@H]2C(=O)NC2(C#N)CC2)n(C2CCC2)n1", "note": "[Example 419, (2S,4R)-1-(2-Cyclobutyl-5-methyl-2H-pyrazol-3-yl)-4-(4-pyrimidin-4-yl-2-trifluoromethyl-benzenesulfonyl)-pyrrolidine-2-carboxylic acid (1-cyano-cyclopropyl)-amide]", "values": [{"measurement": "IC50", "setting": "Cat L", "value": 16900, "unit": "nM"}, {"measurement": "IC50", "setting": "Cathepsin S", "value": 0.415, "unit": "nM"}]}, {"smiles": "Cc1cc(N2C[C@H](S(=O)(=O)c3ccc(-c4ccnn4C)cc3C(F)(F)F)C[C@H]2C(=O)NC2(C#N)CC2)n(C2CCC2)n1", "note": "[Example 420, (2S,4R)—N-(1-cyanocyclopropyl)-1-(1-cyclobutyl-3-methyl-1H-pyrazol-5-yl)-4-(4-(1-methyl-1H-pyrazol-5-yl)-2-(trifluoromethyl)phenylsulfonyl)pyrrolidine-2-carboxamide]", "values": [{"measurement": "IC50", "setting": "Cat L", "value": 14000, "unit": "nM"}, {"measurement": "IC50", "setting": "Cathepsin S", "value": 0.395, "unit": "nM"}]}, {"smiles": "N#CC1(NC(=O)[C@H]2CC(S(=O)(=O)c3ccccc3Cl)CN2C(=O)C(NCC(F)(F)F)c2ccc(Cl)cc2)CC1", "note": "(stereo partly drawn) [Example 421, (R)-4-(2-Chloro-benzenesulfonyl)-1-[2-(4-chloro-phenyl)-2-(2,2,2-trifluoro-ethylamino)-acetyl]-pyrrolidine-2-carboxylic acid (1-cyano-cyclopropyl)-amide]", "values": [{"measurement": "IC50", "setting": "Cat L", "value": 4950, "unit": "nM"}, {"measurement": "IC50", "setting": "Cathepsin S", "value": 11.5, "unit": "nM"}]}, {"smiles": "N#CC1(NC(=O)[C@@H]2C[C@@H](S(=O)(=O)c3ccccc3Cl)CN2C(=O)Cn2ccc(C(F)(F)F)n2)CC1", "note": "[Example 422, (2S,4R)-4-(2-Chloro-benzenesulfonyl)-1-[2-(3-trifluoromethyl-pyrazol-1-yl)-acetyl]-pyrrolidine-2-carboxylic acid (1-cyano-cyclopropyl)-amide]", "values": [{"measurement": "IC50", "setting": "Cat L", "value": 4360, "unit": "nM"}, {"measurement": "IC50", "setting": "Cathepsin S", "value": 1.85, "unit": "nM"}]}, {"smiles": "N#CC1(NC(=O)[C@@H]2C[C@@H](S(=O)(=O)CC3CC3)CN2C(=O)C2(C(F)(F)F)CC2)CC1", "note": "[Example 423, (2S,4R)-4-Cyclopropylmethanesulfonyl-1-(1-trifluoromethyl-cyclopropanecarbonyl)-pyrrolidine-2-carboxylic acid (1-cyano-cyclopropyl)-amide]", "values": [{"measurement": "IC50", "setting": "Cat L", "value": "≥ 25000", "unit": "nM"}, {"measurement": "IC50", "setting": "Cathepsin S", "value": 1470, "unit": "nM"}]}, {"smiles": "N#CC1(NC(=O)[C@@H]2C[C@@H](S(=O)(=O)CC3CC3)CN2C(=O)C2(c3ccc(Cl)cc3)CC2)CC1", "note": "[Example 424, (2S,4R)-1-[1-(4-Chloro-phenyl)-cyclopropanecarbonyl]-4-cyclopropylmethanesulfonyl-pyrrolidine-2-carboxylic acid (1-cyano-cyclopropyl)-amide]", "values": [{"measurement": "IC50", "setting": "Cat L", "value": "≥ 25000", "unit": "nM"}, {"measurement": "IC50", "setting": "Cathepsin S", "value": 410, "unit": "nM"}]}, {"smiles": "N#CC1(NC(=O)[C@@H]2C[C@@H](S(=O)(=O)c3ccccc3Cl)CN2C(=O)C2(c3ccc(F)cc3)CC2)CC1", "note": "[Example 425, (2S,4R)-4-(2-chlorophenylsulfonyl)-N-(1-cyanocyclopropyl)-1-(1-(4-fluorophenyl)-cyclopropanecarbonyl)pyrrolidine-2-carboxamide]", "values": [{"measurement": "IC50", "setting": "Cat L", "value": 335, "unit": "nM"}, {"measurement": "IC50", "setting": "Cathepsin S", "value": 0.26, "unit": "nM"}]}, {"smiles": "N#CC1(NC(=O)[C@@H]2C[C@@H](S(=O)(=O)c3ccccc3Cl)CN2C(=O)C2(c3ccc(Br)cc3)CC2)CC1", "note": "[Example 426, (2S,4R)-1-(1-(4-bromophenyl)cyclopropanecarbonyl)-4-(2-chlorophenylsulfonyl)-N-(1-cyanocyclopropyl)pyrrolidine-2-carboxamide]", "values": [{"measurement": "IC50", "setting": "Cat L", "value": 45, "unit": "nM"}, {"measurement": "IC50", "setting": "Cathepsin S", "value": 0.47, "unit": "nM"}]}]}
